What all share (format): binding
The target of experiment [1] is T1, DRP1A (Arabidopsis thaliana, UniProt P42697).
T1 sequence (P42697 1-610): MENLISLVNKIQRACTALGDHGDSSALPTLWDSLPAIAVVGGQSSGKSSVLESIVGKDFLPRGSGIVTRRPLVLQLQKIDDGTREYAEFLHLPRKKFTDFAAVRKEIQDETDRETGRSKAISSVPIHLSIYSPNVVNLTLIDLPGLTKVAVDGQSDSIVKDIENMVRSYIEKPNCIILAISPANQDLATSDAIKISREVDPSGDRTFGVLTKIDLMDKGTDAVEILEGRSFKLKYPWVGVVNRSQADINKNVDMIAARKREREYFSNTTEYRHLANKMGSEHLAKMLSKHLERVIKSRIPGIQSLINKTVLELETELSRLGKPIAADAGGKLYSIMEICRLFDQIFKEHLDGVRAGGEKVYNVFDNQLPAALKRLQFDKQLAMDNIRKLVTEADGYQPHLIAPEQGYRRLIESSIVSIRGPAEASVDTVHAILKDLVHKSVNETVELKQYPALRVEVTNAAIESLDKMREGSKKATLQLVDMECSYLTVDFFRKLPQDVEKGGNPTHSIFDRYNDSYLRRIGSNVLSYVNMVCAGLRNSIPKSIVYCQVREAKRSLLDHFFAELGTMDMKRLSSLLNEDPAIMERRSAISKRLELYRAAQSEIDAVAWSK
Nature of the experiment: bio-layer interferometry, POPC background subtracted. The note with it: 3% lipid in POPC liposomes; HEPES pH 7.5, 100 mM NaCl.

Experiment [2] deals with T2, ALA1 Loop2 (410–914 aa) (Arabidopsis thaliana, UniProt P98204).
T2 sequence (P98204 410-914): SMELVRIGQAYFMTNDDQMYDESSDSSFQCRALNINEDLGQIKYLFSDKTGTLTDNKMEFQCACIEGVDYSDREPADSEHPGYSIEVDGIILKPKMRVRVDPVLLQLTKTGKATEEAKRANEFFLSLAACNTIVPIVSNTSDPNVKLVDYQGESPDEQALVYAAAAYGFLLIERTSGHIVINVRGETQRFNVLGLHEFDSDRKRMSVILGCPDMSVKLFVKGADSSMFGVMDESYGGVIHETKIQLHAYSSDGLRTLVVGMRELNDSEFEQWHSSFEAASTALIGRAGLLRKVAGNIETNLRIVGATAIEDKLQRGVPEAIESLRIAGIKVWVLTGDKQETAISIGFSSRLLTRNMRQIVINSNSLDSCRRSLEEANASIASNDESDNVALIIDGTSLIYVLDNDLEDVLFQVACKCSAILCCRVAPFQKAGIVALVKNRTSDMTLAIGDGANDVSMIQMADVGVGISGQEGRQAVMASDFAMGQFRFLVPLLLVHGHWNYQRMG
Kind of experiment: bio-layer interferometry, liposome-loaded APS sensor.

In another experiment the target is T3, ALA1 Loop1 (151–329 aa) (Arabidopsis thaliana, UniProt P98204).
T3 sequence (P98204 151-329): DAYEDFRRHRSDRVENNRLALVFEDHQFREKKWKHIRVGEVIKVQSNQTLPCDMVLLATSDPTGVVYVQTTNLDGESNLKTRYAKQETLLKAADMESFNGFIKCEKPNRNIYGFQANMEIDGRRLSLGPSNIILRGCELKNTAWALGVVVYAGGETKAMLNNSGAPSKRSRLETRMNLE
Described as above.

The target in experiment [3] is T1, DRP1A. The experiment is described as above.
Experiment [4] concerns the target T2, ALA1 Loop2 (410–914 aa). Kind of experiment: bio-layer interferometry, POPC background subtracted. The note with it: 3% lipid in POPC liposomes; HEPES pH 7.5, 100 mM NaCl.

The values below come from PMC12311136 (Nature Communications, 2025).

As for `CCCCCCCC/C=C\CCCCCCCC(=O)OC[C@H](COP(=O)(O)O[C@H]1[C@H](O)[C@@H](O)[C@H](OP(=O)(O)O)[C@@H](O)[C@H]1O)OC(=O)CCCCCCC/C=C\CCCCCCCC` [PI4P], at DRP1A [1], the “bio-layer interferometry, POPC background subtracted” value (from here on “bio-layer interferometry”) is “followed by weaker binding to PI4P and PS liposomes”. Besides, the figures for the Kd on ALA1 Loop2 (410–914 aa) [2] and at ALA1 Loop1 (151–329 aa) were 2210 nM and 6050 nM, respectively.
In the case of `CCCCCCCC/C=C\CCCCCCCC(=O)OC[C@H](COP(=O)(O)O[C@@H]1[C@H](O)[C@H](O)[C@@H](OP(=O)(O)O)[C@H](OP(=O)(O)O)[C@H]1O)OC(=O)CCCCCCC/C=C\CCCCCCCC` [PI(4,5)P2], the Kd on DRP1A [3] is 1230 nM.
Consider `CCCCCCCC/C=C\CCCCCCCC(=O)OC[C@H](COP(=O)(O)O[C@H]1[C@H](O)[C@@H](OP(=O)(O)O)[C@H](O)[C@@H](O)[C@H]1O)OC(=O)CCCCCCC/C=C\CCCCCCCC` [PI5P], for which the “bio-layer interferometry” value at ALA1 Loop2 (410–914 aa) [4] was “highest near-steady-state binding was observed with PS, PI4P and PI5P liposomes”.
Regarding `CCCCCCCC/C=C\CCCCCCCC(=O)OC[C@H](COP(=O)(O)OC[C@H](N)C(=O)O)OC(=O)CCCCCCC/C=C\CCCCCCCC` [PS], the “bio-layer interferometry” value at DRP1A [1] is “followed by weaker binding to PI4P and PS liposomes”; at ALA1 Loop2 (410–914 aa) [4], “highest near-steady-state binding was observed with PS, PI4P and PI5P liposomes”.
